Assay results: US20250136606A1, “MODULATORS OF TRPML, THEIR COMPOSITIONS AND METHODS OF USE” (Caraway Therapeutics, Inc., priority 2021, published 2025)

Legend:
Type in all cases: cell-based
[1] = biological target: TRPML1 (Homo sapiens, UniProt Q9GZU1); assay: Fluorescent TRPML1 assay (Fluo4-AM calcium fluorescence in doxycycline-induced HEK-293 Trex cells)
In short: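 EC50 values come from non-linear regression of percent activity, normalized to on-plate positive and negative controls, with fluorescence read at 480 nm excitation and 540 nm emission. Fluo4-AM-loaded (1 µM) doxycycline-induced HEK-293 Trex cells expressing mutated human TRPML1 were exposed in 10 mM calcium Ringer's to 6 nM–20 µM compound, in triplicate.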

[2] = biological target: T1, TRPML2 (Homo sapiens, UniProt Q8IZK6); assay: Fluorescent TRPML2 assay (performed as for TRPML1, substituting the TRPML2 subtype)
T1 construct: expressed in transfected cells
T1 sequence (Q8IZK6 1-566): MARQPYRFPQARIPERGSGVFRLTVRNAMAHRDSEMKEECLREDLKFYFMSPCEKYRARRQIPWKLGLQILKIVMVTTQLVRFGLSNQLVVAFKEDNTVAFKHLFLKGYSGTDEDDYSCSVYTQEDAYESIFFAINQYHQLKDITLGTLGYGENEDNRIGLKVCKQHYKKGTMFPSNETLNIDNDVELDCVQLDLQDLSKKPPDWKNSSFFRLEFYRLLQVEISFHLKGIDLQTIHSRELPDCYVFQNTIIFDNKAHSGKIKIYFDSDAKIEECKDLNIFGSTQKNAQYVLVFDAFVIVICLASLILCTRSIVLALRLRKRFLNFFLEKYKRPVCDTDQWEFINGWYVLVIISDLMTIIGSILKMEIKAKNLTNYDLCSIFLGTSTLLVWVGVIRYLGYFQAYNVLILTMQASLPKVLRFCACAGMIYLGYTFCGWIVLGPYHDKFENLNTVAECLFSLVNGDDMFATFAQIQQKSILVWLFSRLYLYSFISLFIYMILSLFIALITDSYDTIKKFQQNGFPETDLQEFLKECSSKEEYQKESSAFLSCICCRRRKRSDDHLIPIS
In short: (§1)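 Doxycycline-induced (0.5 ug/mL) HEK-293 Trex cells stably expressing surface-directed mutant channel were loaded with 1 micromolar Fluo4-AM, resuspended in Ringer's with 10 mM calcium and added to compound plates. Fluorescence (ex 480, em 540 nm) gave percent activity versus on-plate controls; EC50 by non-linear regression.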

[3] = biological target: T2, TRPML3 (Homo sapiens, UniProt Q8TDD5); assay: Fluorescent TRPML3 assay (performed as for TRPML1, substituting the TRPML3 subtype)
T2 construct: expressed in transfected cells
T2 sequence (Q8TDD5 1-553): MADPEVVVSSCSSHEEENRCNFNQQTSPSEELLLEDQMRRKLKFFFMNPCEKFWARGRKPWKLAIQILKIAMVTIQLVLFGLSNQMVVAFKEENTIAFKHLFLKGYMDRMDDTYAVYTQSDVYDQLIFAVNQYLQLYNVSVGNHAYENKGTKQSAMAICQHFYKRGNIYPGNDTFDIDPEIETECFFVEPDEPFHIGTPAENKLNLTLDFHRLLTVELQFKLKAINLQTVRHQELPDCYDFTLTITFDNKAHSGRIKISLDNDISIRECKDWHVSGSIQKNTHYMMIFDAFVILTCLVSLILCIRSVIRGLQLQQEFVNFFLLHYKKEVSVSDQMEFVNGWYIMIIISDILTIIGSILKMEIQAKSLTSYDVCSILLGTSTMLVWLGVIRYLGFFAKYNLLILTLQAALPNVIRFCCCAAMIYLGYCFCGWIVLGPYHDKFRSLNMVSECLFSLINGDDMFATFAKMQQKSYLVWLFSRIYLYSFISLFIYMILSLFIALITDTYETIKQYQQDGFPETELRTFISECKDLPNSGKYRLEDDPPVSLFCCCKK
In short: as §1

Chain of TRPML1 (Q9GZU1 whole entry L15A/L16A/L577A/L578A, form open): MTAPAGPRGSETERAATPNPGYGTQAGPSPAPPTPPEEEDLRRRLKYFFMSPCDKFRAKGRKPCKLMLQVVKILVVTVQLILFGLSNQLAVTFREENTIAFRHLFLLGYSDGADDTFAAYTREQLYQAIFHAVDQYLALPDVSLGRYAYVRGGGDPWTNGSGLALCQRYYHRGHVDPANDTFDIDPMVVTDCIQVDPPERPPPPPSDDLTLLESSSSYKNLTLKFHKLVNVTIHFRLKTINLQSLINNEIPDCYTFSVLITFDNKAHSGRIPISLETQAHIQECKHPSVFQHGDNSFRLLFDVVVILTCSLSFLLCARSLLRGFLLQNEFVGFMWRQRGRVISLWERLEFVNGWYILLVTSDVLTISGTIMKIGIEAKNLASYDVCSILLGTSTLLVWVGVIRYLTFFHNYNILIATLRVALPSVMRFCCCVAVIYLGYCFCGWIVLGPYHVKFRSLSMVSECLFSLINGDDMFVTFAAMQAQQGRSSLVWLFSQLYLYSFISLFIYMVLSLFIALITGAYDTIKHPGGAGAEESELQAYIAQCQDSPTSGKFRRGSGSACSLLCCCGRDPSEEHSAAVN

| SMILES | EC50 [1] | EC50 [2] | EC50 [3] |
| --- | --- | --- | --- |
| C[C@@H]1CN(c2ncnc3c2c(C(F)(F)F)cn3-c2nccc(C#N)n2)[C@@H](C)CN1C(=O)OC(C)(C)C [Compound 510, tert-butyl (2R,5S)-4-(7-(4-cyanopyrimidin-2-yl)-5-(trifluoromethyl)-7H-pyrrolo[2,3-d]pyrimidin-4-yl)-2,5-dimethylpiperazine-1-carboxylate] | 100 to 500 nM | > 2000 nM | < 100 nM |
| C[C@@H]1CN(c2ncnc3c2c(C(F)F)cn3-c2cc(C#N)ccn2)CCN1C(=O)OC(C)(C)C [Compound 511, tert-butyl (R)-4-(7-(4-cyanopyridin-2-yl)-5-(difluoromethyl)-7H-pyrrolo[2,3-d]pyrimidin-4-yl)-2-methylpiperazine-1-carboxylate] | < 100 nM | < 100 nM | < 100 nM |
| CCC(CC)OC(=O)N1C[C@H](C)N(c2ncnc3c2c(C(F)(F)F)cn3-c2cc(C#N)ccn2)C[C@H]1C [Compound 512, pentan-3-yl (2R,5S)-4-(7-(4-cyanopyridin-2-yl)-5-(trifluoromethyl)-7H-pyrrolo[2,3-d]pyrimidin-4-yl)-2,5-dimethylpiperazine-1-carboxylate] | < 100 nM | 100 to 500 nM | < 100 nM |
| C[C@@H]1CN(c2ncnc3c2c(C(F)(F)F)cn3-c2cccc(C#N)c2)[C@@H](C)CN1C(=O)OC(C)(C)C [Compound 513, tert-butyl (2R,5S)-4-(7-(3-cyanophenyl)-5-(trifluoromethyl)-7H-pyrrolo[2,3-d]pyrimidin-4-yl)-2,5-dimethylpiperazine-1-carboxylate] | < 100 nM | 500 to 2000 nM | < 100 nM |
| C[C@H]1CN(C(=O)OC(C)(C)C)CCN1c1ncnc2c1c(C(F)F)cn2-c1cc(C#N)ccn1 [Compound 514, tert-butyl (S)-4-(7-(4-cyanopyridin-2-yl)-5-(difluoromethyl)-7H-pyrrolo[2,3-d]pyrimidin-4-yl)-3-methylpiperazine-1-carboxylate] | < 100 nM | < 100 nM | < 100 nM |
| C[C@@H]1CN(c2ncnc3c2c(C(F)(F)F)cn3-c2cc(C#N)ccn2)[C@@H](C)CN1C(=O)OC1CCC1 [Compound 516, cyclobutyl (2R,5S)-4-(7-(4-cyanopyridin-2-yl)-5-(trifluoromethyl)-7H-pyrrolo[2,3-d]pyrimidin-4-yl)-2,5-dimethylpiperazine-1-carboxylate] | < 100 nM | < 100 nM | < 100 nM |
| Cc1cc(C#N)cc(-n2cc(C(F)(F)F)c3c(N4C[C@@H](C)N(C(=O)OC(C)(C)C)C[C@@H]4C)ncnc32)n1 [Compound 517, tert-butyl (2R,5S)-4-(7-(4-cyano-6-methylpyridin-2-yl)-5-(trifluoromethyl)-7H-pyrrolo[2,3-d]pyrimidin-4-yl)-2,5-dimethylpiperazine-1-carboxylate] | < 100 nM | 100 to 500 nM | < 100 nM |
| [2H]C([2H])([2H])C(OC(=O)N1C[C@H](C)N(c2ncnc3c2c(C(F)(F)F)cn3-c2cc(C#N)ccn2)C[C@H]1C)(C([2H])([2H])[2H])C([2H])([2H])[2H] [Compound 518, 2-(methyl-d3)propan-2-yl-1,1,1,3,3,3-d6 (2R,5S)-4-(7-(4-cyanopyridin-2-yl)-5-(trifluoromethyl)-7H-pyrrolo[2,3-d]pyrimidin-4-yl)-2,5-dimethylpiperazine-1-carboxylate] | < 100 nM | < 100 nM | < 100 nM |

More lines, now with the values ahead:

| EC50 [1] | EC50 [2] | EC50 [3] | SMILES |
| --- | --- | --- | --- |
| < 100 nM | 100 to 500 nM | < 100 nM | C[C@@H]1CN(c2ncnc3c2c(C(F)(F)F)cn3-c2cc(C#N)ccn2)[C@@H](C)CN1C(=O)OC1(C)CC1 [Compound 519, 1-methylcyclopropyl (2R,5S)-4-(7-(4-cyanopyridin-2-yl)-5-(trifluoromethyl)-7H-pyrrolo[2,3-d]pyrimidin-4-yl)-2,5-dimethylpiperazine-1-carboxylate] |
| < 100 nM | 100 to 500 nM | < 100 nM | C[C@@H]1CN(c2ncnc3c2c(C(F)F)cn3-c2cc(C#N)ccn2)[C@@H](C)CN1C(=O)OC(C)(C)C [Compound 520, tert-butyl (2R,5S)-4-(7-(4-cyanopyridin-2-yl)-5-(difluoromethyl)-7H-pyrrolo[2,3-d]pyrimidin-4-yl)-2,5-dimethylpiperazine-1-carboxylate] |
| < 100 nM | 500 to 2000 nM | < 100 nM | C[C@@H]1CN(c2ncnc3c2c(OC(F)F)cn3-c2cc(Cl)ccn2)[C@@H](C)CN1C(=O)OC(C)(C)C [Compound 521, tert-butyl (2R,5S)-4-(7-(4-chloropyridin-2-yl)-5-(difluoromethoxy)-7H-pyrrolo[2,3-d]pyrimidin-4-yl)-2,5-dimethylpiperazine-1-carboxylate] |
| 100 to 500 nM | 100 to 500 nM | < 100 nM | C[C@H]1CN(C(=O)OC(C)(C)C)CCN1c1ncnc2c1c(N(C)C1CC1)cn2-c1cccc(Cl)c1 [Compound 522, tert-butyl (S)-4-(7-(3-chlorophenyl)-5-(cyclopropyl(methyl)amino)-7H-pyrrolo[2,3-d]pyrimidin-4-yl)-3-methylpiperazine-1-carboxylate] |
| < 100 nM | < 100 nM | < 100 nM | C[C@@H]1CN(c2ncnc3c2c(OC(F)F)cn3-c2cc(C#N)ccn2)[C@@H](C)CN1C(=O)OC(C)(C)C [Compound 523, tert-butyl (2R,5S)-4-(7-(4-cyanopyridin-2-yl)-5-(difluoromethoxy)-7H-pyrrolo[2,3-d]pyrimidin-4-yl)-2,5-dimethylpiperazine-1-carboxylate] |
| < 100 nM | < 100 nM | < 100 nM | C[C@@H]1CN(c2ncnc3c2c(OC(F)(F)F)cn3-c2cc(C#N)ccn2)[C@@H](C)CN1C(=O)OC(C)(C)C [Compound 524, tert-butyl (2R,5S)-4-(7-(4-cyanopyridin-2-yl)-5-(trifluoromethoxy)-7H-pyrrolo[2,3-d]pyrimidin-4-yl)-2,5-dimethylpiperazine-1-carboxylate] |
| < 100 nM | < 100 nM | < 100 nM | C[C@@H]1CN(c2ncnc3c2c(C(C)(C)C)cn3-c2cc(C#N)ccn2)[C@@H](C)CN1C(=O)OC(C)(C)C [Compound 525, tert-butyl (2R,5S)-4-(5-(tert-butyl)-7-(4-cyanopyridin-2-yl)-7H-pyrrolo[2,3-d]pyrimidin-4-yl)-2,5-dimethylpiperazine-1-carboxylate] |
| 100 to 500 nM | 100 to 500 nM | 100 to 500 nM | C[C@H]1CN(C(=O)OC(C)(C)C)CCN1c1ncnc2c1c(N(C)C1CC1)cn2-c1cccc(C#N)c1 [Compound 526] |
| 500 to 2000 nM | > 2000 nM | 500 to 2000 nM | C[C@H]1CN(C(=O)OC(C)(C)C)CCN1c1ncnc2c1c(C1CC1)cn2[C@H]1CCC[C@@H](C#N)C1 [Compound 527, tert-butyl (S)-4-(7-(cis-3-cyanocyclohexyl)-5-cyclopropyl-7H-pyrrolo[2,3-d]pyrimidin-4-yl)-3-methylpiperazine-1-carboxylate] |
| 100 to 500 nM | < 100 nM | < 100 nM | CC(C)(C)OC(=O)N1CCN(c2ncnc3c2c(C(F)(F)F)cn3-c2cc(C#N)ccn2)C(C)(C)C1 [Compound 528, tert-butyl 4-(7-(4-cyanopyridin-2-yl)-5-(trifluoromethyl)-7H-pyrrolo[2,3-d]pyrimidin-4-yl)-3,3-dimethylpiperazine-1-carboxylate] |
| 500 to 2000 nM | > 2000 nM | 100 to 500 nM | C[C@H]1CN(C(=O)OC(C)(C)C)CCN1c1ncnc2c1c(N1CCCC1)cn2[C@H]1CCC[C@@H](C#N)C1 [Compound 529, tert-butyl (S)-4-(7-(cis-3-cyanocyclohexyl)-5-(pyrrolidin-1-yl)-7H-pyrrolo[2,3-d]pyrimidin-4-yl)-3-methylpiperazine-1-carboxylate] |
